# Results published in patent US20230331762A1, “CRYSTALLINE FORM OF ASPACYTARABINE” (Biosight Ltd., priority 2020, published 2023).
# “Also recorded” adds a separate entry of the source. Read-outs that look alike come from different tables or passages of the source.
# Legend:
# Assay type in all cases: physicochemical
# [1] = Thermodynamic stability of the solid form; settings: crystalline vs amorphous
# [2] = Solubility in organic solvents
# Solubility in water = experiment: Solubility in water
# [3] = Decomposition in solvents
SMILES,thermodynamic stability [1],solubility in DCM ([2]; DCM),solubility in EtOH ([2]; EtOH),solubility in MeOH ([2]; MeOH),solubility in NMP ([2]; NMP),solubility in THF ([2]; THF),solubility in an amide solvent ([2]; amide solvent),solubility in ethyl acetate ([2]; ethyl acetate),solubility in most organic solvents ([2]; most organic solvents),solubility in toluene ([2]; toluene),solubility in water (Solubility in water),solubility in water (Solubility in water; result in words),decomposition in DMF ([3]; strong polar aprotic solvent DMF),decomposition in DMSO ([3]; strong polar aprotic solvent DMSO),"decomposition in water ([3]; water, rate is determined by heat and time)"
"N[C@@H](CC(=O)Nc1ccn([C@@H]2O[C@H](CO)[C@@H](O)[C@@H]2O)c(=O)n1)C(=O)O [Form B, (S)-2-amino-4-((1-((2R,3S,4S,5R)-3,4-dihydroxy-5-(hydroxymethyl)tetrahydrofuran-2-yl)-2-oxo-1,2-dihydropyrimidin-4-yl)amino)-4-oxobutanoic acid]",thermodynamically more stable than the amorphous form,not soluble,not soluble,not soluble,soluble,not soluble,soluble,not soluble,non soluble; also recorded: insoluble; also recorded: not soluble,not soluble,up to 2%,insoluble; also recorded: not soluble,,,
Cl.N[C@@H](CC(=O)Nc1ccn([C@@H]2O[C@H](CO)[C@@H](O)[C@@H]2O)c(=O)n1)C(=O)O [aspacytarabine-HCl],,,,,,,,,,,,,decompose,decompose,decompose
